# Data: a melting point compilation (Tetko et al.; mined from patent text by program, amines drawn as free bases though some values may be those of a salt)
row,melting point [°C],SMILES
1,232,COc1ccc(N2CCN(c3ccc(NC4=NC(C)(C)CS4)cc3)CC2)cc1
2,194 to 198,O=C(NC1CCc2ccc([N+](=O)[O-])cc2C1)c1ccccc1 (centres undefined)
3,149,O=C1[C@@H](N2C(=O)c3ccccc3C2=O)[C@@H](CCl)N1Cc1ccccc1 (relative stereo)
4,252,O=C(Nc1cccc(S(=O)(=O)N2CCCC2)c1)c1cnn2c(C(F)(F)F)cc(-c3ccc(Cl)cc3)nc12
5,> 360,Nc1ccc2c3c(cccc13)C(=O)N(O)C2=O
6,225 to 226,Cc1cc2c(-c3ccccc3C)c(NC(=O)Nc3ccc(F)cc3F)c(=O)n(C)c2cc1C
7,111 to 115,COc1cccc(CN2CCc3cc(O)ccc3C2)c1OC
8,273 to 276,O=C1c2cc(F)ccc2-n2c1nc1ccccc1c2=O
9,246,COCCN1Cc2c(cnc3c(NC(=O)c4c(Cl)cccc4Cl)cccc23)C1=O
10,130,CC(Oc1ccc(Oc2ccc3cc(Cl)ccc3n2)cc1)C(=O)O (centres undefined)
11,187 to 189,O=C(O)C1c2cc(Br)ccc2COc2ccccc21 (centres undefined)
12,180 to 181,COC(=O)c1ccc(-c2nc(-c3cc(C(F)(F)F)cc(C(F)(F)F)c3)co2)cc1
13,210 to 214,CS(=O)(=O)c1cc(C(=O)O)ccc1Oc1ccc(C(=S)Cc2ccc3ccccc3n2)cc1
14,99 to 100,OC(C#CI)(c1ccc(-c2ccccc2)cc1)c1cccc(Cl)c1 (centres undefined)
15,91 to 92.5,Nc1cc(-c2ccccc2)ccc1Cl
16,99 to 101,CC(C)CCC1(c2ccccc2)CC(O)=C(Sc2ccccc2C(=O)O)C(=O)O1 (centres undefined)
17,94 to 95,CCOC(=O)c1ccc2c(N)cccc2c1
18,118 to 120,COc1ccc(C(=O)c2ccccc2F)c(O)c1C
19,91.5 to 94,O=C(O)CCCOc1ccc([C@H]2c3ccc(O)cc3OC[C@H]2c2ccccc2)cc1 (racemic)
20,142 to 146,CCCCOCCOc1ccc(-c2ccc3c(c2)C=C(C(=O)OC)CCN3c2ccc(S(=O)(=O)NC)cc2)cc1
21,242 to 244,COc1ccc(C=C2NC(=O)NC2=O)cc1OCc1ccccc1
22,65 to 80,CC(=O)C(=Cc1cccc([N+](=O)[O-])c1)C(=O)OC(C)(C)CN(C)CCC(c1ccccc1)c1ccccc1
23,163 to 164,Cc1oc(-c2ccc3ccccc3c2)nc1COc1ccc(CCCCC2OC(=O)NC2=O)cc1 (centres undefined)
24,290 to 291,Cc1ccc2sc3cc(C(=O)O)ccc3c2c1
25,160 to 163,CCN(CC)c1ccc(/C=C/C(=O)CC(=O)/C=C/c2ccc3cc[nH]c3c2)c(OCc2ccccc2)c1

row,melting point [°C],SMILES
1,167 to 168,OC(c1ccc(Cl)cc1)(c1ccc(Cl)cc1)c1nccn1Cc1ccccc1
2,> 300,O=[N+]([O-])c1cnc2cc(Cl)ccc2c1O
3,162 to 165,COc1ccc(C(=O)Oc2ccc(O)cc2)cc1
4,80 to 83,Clc1ccc(-n2c(Cl)nc3ccccc32)c(Cl)c1
5,117 to 120,COC1(c2ccccc2)OC=C(c2ccc(CCC(=O)O)cc2)C1=O (centres undefined)
6,214 to 216,CC1(C)CC(C)(c2ccc(Oc3ccc([N+](=O)[O-])cc3)cc2)c2cc(Oc3ccc([N+](=O)[O-])cc3)ccc21 (centres undefined)
7,78,CN1CCN(CCOc2ccccc2CC(=O)N2C[C@@H]3C(=O)CCC(c4ccccc4)(c4ccccc4)[C@@H]3C2)CC1 (racemic)
8,196 to 197,N#Cc1ccc(OCCOc2ccc(C#N)cc2)cc1
9,94.6 to 95.9,CC(=O)NC[C@@H]1CCCc2cc(Sc3ccccc3)cc(F)c21
10,220,CCc1ccnc(C(=O)c2[nH]c3ccc(Cl)cc3c2CC(=O)O)c1Cl
11,48 to 52,O=C(Nc1nccs1)C(CC1CCCC1)c1ccc(-c2cccnc2)cc1 (centres undefined)
12,140 to 142,CC1(c2ccc(F)cc2)OC(C=Cc2ccc(C#N)cc2)=CC1=O (centres undefined)
13,120,c1ccc(C2CSC(c3ccccc3)N2)cc1 (mixture of isomers)
14,82 to 84,OCCN1CCN(c2nn(-c3ccc(C(F)(F)F)cc3)c3ccccc23)CC1
15,104 to 106,CCOc1nc2cccc(C(=O)OCOC(=O)C(C)(C)C)c2n1Cc1ccc(-c2ccccc2-c2nnn[nH]2)cc1
16,277 to 279,CCOC(=O)c1cnc2c(OC)cccc2c1Nc1ccc(O)cc1C
17,83 to 85,N#Cc1cncc(-c2ccc(OC[C@@H](N)Cc3ccccc3)cc2)c1Nc1cccc2[nH]ccc12
18,70,CCCCCCCCCCC(C(=O)CCCCO)P(=O)(c1ccccc1)c1ccccc1 (centres undefined)
19,189 to 191,CN1C(=O)CC(c2ccccc2)C1C(O)C=Cc1ccc(F)cc1 (centres undefined)
20,115 to 116,Clc1cccc(-c2nc3cccc(NCc4ccccn4)c3o2)c1
21,86,COC(=O)CN(C)c1nc(-c2ccc(Br)cc2)cs1
22,95 to 100,CC1(C)COc2cc3c(cc21)C1(CO3)C(=O)Nc2ccccc21 (centres undefined)
23,265 to 267,O=C(O)c1ccc(Cc2nc3ccccc3[nH]2)cc1
24,167 to 168,O=C(O)Cc1nn(Cc2ccc(Br)cc2F)c2ccccc12

# More lines, now with the values behind:
row,SMILES,melting point [°C]
1,COC(=O)C(C)(C)NC(=O)c1cc2c(n(CC3CCCCC3)c1=O)CCCCCC2,260 to 263
2,CC(=O)N(C(=O)c1ccccc1O)C(C)C(=O)O (racemic),118 to 120
3,CC(C)[C@@H]1CC[C@@H](C)C[C@H]1O[C@@H]1OC(=O)[C@@H]2[C@H]1C2(C)C,82
4,COC(=O)c1cccc2cc(C)[nH]c12,170 to 173
5,C=CC(C)(O)C#Cc1ncn2c1CN(C)C(=O)c1c(Cl)cccc1-2 (centres undefined),185 to 187
6,COc1ccc2[nH]c(C)c(CCNC(=O)C3CC3)c2c1,102 to 103
7,COc1ccc(C(=O)O)s1,167 to 168
8,Nc1ncc2c(=O)c(C(=O)ON3C(=O)CCC3=O)c[nH]c2n1,> 300
9,O=C(NC1CCc2c[nH]cc2C1)[C@@H]1CCCN1C(=O)[C@@H](CC1CCCCC1)NS(=O)(=O)Cc1ccccc1 (some centres undefined),106 to 109
10,C[C@H](NC(=O)c1nc(CCCc2ccccc2)c[nH]1)C(=O)NC(C=O)CC(=O)O (some centres undefined),94 to 96
11,COc1cc(OC)c2c(=O)[nH]c(-c3ccc(OC)c(-c4ccc(C(=O)N(C)C)cc4C)n3)nc2c1,248 to 251
12,Clc1cc(CBr)c(CBr)cc1Cl,55 to 56
13,CCOC(=O)C(=O)Nc1c([N+](=O)[O-])cc(C#N)c2ccccc12,178
14,Cn1c2cc[nH]c(=O)c2c2cccc(F)c21,294 to 296
15,CCCCCCCCCCCCCCCCCC(=O)Nc1cccc(N(CC(=O)OC)CC(=O)OC)c1,78 to 79
16,O=Cc1cc2cc(Cl)c(Cl)cc2[nH]1,188 to 190
17,CC(C)(C)c1cc(C(O)CN)cc(C(C)(C)C)c1O (centres undefined),137 to 140
18,N#CCc1cc2c(cc1CC#N)OCO2,105 to 107
19,O=C1NC(=O)C(Cc2ccc(N3CCC(NC[C@H](O)c4ccc5nnnn5c4)CC3)cc2)S1 (some centres undefined),130 to 132
20,CCCc1c(OCCCOc2ccc3c(=O)cc(C(=O)O)oc3c2CCC)ccc(C(C)=O)c1O,173 to 174
21,COc1cc(Cc2cnc(N)nc2N)cc(-c2ccc(C=O)cc2)c1OC,99
22,O=C(O)Cc1cccc2c(C3CCCCC3)nccc12,178 to 179
23,CC1(c2ccc(Br)cc2)Cc2cc(OCC(=O)O)c(Cl)c(Cl)c2C1=O (centres undefined),171 to 172
24,CCOC(=O)Cn1c2ccc(Cl)ccc-2c(C(=O)OCC)c1=O,177 to 179
25,COc1cc(C=O)cc(C(F)(F)F)c1O,151 to 152

row,SMILES,melting point [°C]
1,N[C@@H](CCCCNC(=O)NCc1ccccc1)C(=O)N1CC(F)(F)C(F)(F)C1,89 to 92
2,CCOC(=O)C1(C)Sc2ccccc2NC1=O (centres undefined),109 to 111
3,O=c1c(Cl)c(Cl)cnn1-c1cc([N+](=O)[O-])c(Cl)cc1F,168
4,CCCCOc1c(CNC(=O)OC(C)(C)C)n(CC(C)C)c(=O)c2ccc(-c3nnn[nH]3)cc12,152 to 153
5,CC(C)Cn1c(CO)nc2c(N)nc3cccnc3c21,226 to 228
6,CCC(=O)Oc1c(OC)cc(C)c(C(=O)c2c(OC)ccc(Cl)c2C)c1OC,150 to 151
7,COCCn1nc2c(N)nc3ccccc3c2c1CCCCCl,156 to 157
8,CC(C)(C#N)N1CCN(c2ccc(N3CC(CCC(N)=O)OC3=O)cc2F)CC1 (centres undefined),139 to 143
9,ClC(Cl)(Cl)c1nnc(Br)s1,39
10,O=C(O)C1CCN(c2nnc(NCc3ccc4c(c3)OCO4)c3ccncc23)CC1,138 to 140
11,CCC(=O)N1CCNC1=Nc1ccc(Cl)cc1Cl,126 to 128
12,Sc1nnc(-c2cccnc2)o1,237
13,COc1cc(C(=O)O)ccc1-c1nc2cc(Cl)c(Cl)cc2[nH]1,> 250
14,CCC1CC2C3CCC4=CC(=O)CCC4C3CCC2(C)C1OC(=O)COC(C)=O (centres undefined),98 to 100
15,CCCc1c(OCCCCCC(=O)NCCCCc2cncnc2)ccc(C(C)=O)c1O,87 to 89
16,COc1cc2c(cc1OC)CN(CCCc1ccc(NC(=O)c3nc4cc(C)c(C)cc4nc3OC)cc1)CC2,164 to 166
17,COC(=O)c1cc(Cl)c(Cl)c(-c2cc(C)no2)c1C,76 to 77
18,COc1cccc(CNc2nc(Cl)nc3c2nc(Br)n3C(C)C)c1,123 to 125
19,C=CC[C@@H](C(=O)N[C@H](C(=O)OCc1ccccc1)C(C)(C)C)[C@@H]1OC(C)(C)OC1=O,67 to 70
20,Cc1cc(C)nc(NC(=O)c2ccn3c2CSC3c2cccnc2)c1 (centres undefined),171
21,COc1cccc(CO)c1CO,95
22,CCOCCSC(F)(F)C(O)(Cn1cncn1)c1ccc(F)cc1F (centres undefined),61 to 63
23,CCCCC1(CCCC)CCc2c(OCc3ccccn3)cccc2C1O (centres undefined),106 to 107
24,CCc1nn(CCO)c(CC)c1Oc1cc(-n2cccn2)cc(-n2cccn2)c1,108 to 110
25,CCc1c(C(=O)c2cc(Cl)cc(Cl)c2)[nH]c(=O)[nH]c1=O,242 to 243
